According to US6090787A, “Antithrombotic agents” (Eli Lilly and Company, priority 1999, dated 2000):
Square brackets hold non-standard residues; d marks the D form. Peptide text beside a SMILES is read from it. dPip = O=C(O)[C@H]1CCCCN1; Nphe = O=C(O)CNCc1ccccc1; NEtG = CCNCC(=O)O

Tests used:
[1] = biological target: T1, human thrombin (Homo sapiens, UniProt P00734); assay: Inhibition of amidase activity of thrombin (Kass), chromogenic substrate; type: biochemical; conditions: apparent association constant, mean over a range of concentrations
T1 construct: purified human thrombin, Enzyme Research Laboratories; purchased Enzyme Research Laboratories, South Bend, Indiana
Procedure: The assay is carried out by mixing 50 μL buffer (0.03 M Tris, 0.15 M NaCl, pH 7.4) with 25 μL of bovine thrombin or human thrombin solution (0.21 mg/mL of thrombostat bovine thrombin, Parke-Davis, or purified human thrombin, Enzyme Research Laboratories, South Bend, Indiana, at about 8 NIH units/mL, in the same buffer) and 25 μL of test compound in a solvent (in 50% aqueous methanol, v:v). The 150 μL of an aqueous solution of the chromogenic substrate (at 0.25 mg/mL) are added and the rates of hydrolysis of the substrate are measured by monitoring the reactions at 405 nm for the release of p-nitroaniline. Standard curves are constructed by plotting free thrombin concentration against hydrolysis rate. The hydrolysis rates observed with test compounds are then converted to "free thrombin" values in the respective assays by use of the standard curves. The bound thrombin (bound to test compound) is calculated by subtracting the amount of free thrombin observed in each assay from the known initial amount of thrombin used in the assay. The amount of free inhibitor in each assay is calculated by subtracting the number of moles of bound thrombin from the number of moles of added inhibitor (test compound).
The Kass value is the hypothetical equilibrium constant for the reaction between thrombin and the test compound (I). [formula]
Kass is calculated for a range of concentrations of test compounds and the mean value is reported in units of liter per mole.

[2] = biological target: T2, factor Xa (Homo sapiens, UniProt P00742); assay: Serine protease selectivity, Kass, factor Xa chromogenic assay; type: biochemical; conditions: apparent association constant
T2 construct: Human factors X, Xa, IXa, XIa, and XIIa are purchased from Enzyme Research Laboratories; purchased Enzyme Research Laboratories, South Bend, Ind
Procedure: (§1) By substantially following the procedures described above for human thrombin, and using other human blood coagulation system serine proteases and proteases of the fibrinolytic system with the appropriate chromogenic substrates, identified below, selectivity of the compounds of the present invention with respect to the coagulation factor serine proteases and with respect to the fibrinolytic system serine proteases are evaluated as well as their substantial lack of interference with serine proteases of the fibrinolytic system. Thrombin inhibitors preferably should spare fibrinolysis induced by urokinase, tissue plasminogen activator (t-PA) and streptokinase. This would be important to the therapeutic use of such agents as an adjunct to streptokinase, t-PA or urokinase thrombolytic therapy and to the use of such agents as an endogenous fibrinolysis-sparing (with respect to t-PA and urokinase) antithrombotic agent. In addition to the lack of interference with the amidase activity of the fibrinolytic proteases, such fibrinolytic system sparing can be studied by the use of human plasma clots and their lysis by the respective fibrinolytic plasminogen activators.
(§2) Human factors X, Xa, IXa, XIa, and XIIa are purchased from Enzyme Research Laboratories, South Bend, Ind.; human urokinase from Leo Pharmaceuticals, Denmark; and recombinant activated Protein C (aPC) is prepared at Eli Lilly and Co. substantially according to U.S. Pat. No. 4,981,952 incorporated by reference herein in its entirety. Chromogenic substrates: N--Benzoyl--Ile--Glu--Gly--Arg--p--nitroanilide (for factor Xa); N--Cbz--D--Arg--Gly--Arg--p--nitroanilide (for factor IXa assay as the factor Xa substrate); Pyroglutamyl--Pro--Arg--p--nitroanilide (for Factor XIa and for aPC); H--D--Pro--Phe--Arg--p--nitroanilide (for factor XIIa); and Pyroglutamyl--Gly--Arg--p--nitroanilide (for urokinase); are purchased from KabiVitrum, Stockholm, Sweden, or from Midwest Biotech, Fishers, Indiana. Bovine trypsin is purchased from Worthington Biochemicals, Freehold, N.J., and human plasma kallikrein from Kabi Vitrum, Stockholm, Sweden. Chromogenic substrate H--D--Pro--Phe--Arg--p--nitroanilide for plasma kallikrein is purchased from Kabi Vitrum, Stockholm, Sweden. N--Benzoyl--Phe--Val--Arg--p--nitroanilide, the substrate for human thrombin and for trypsin, is synthesized according to procedures described above for the compounds of the present invention, using known methods of peptide coupling from commercially available reactants or purchased from Midwest Biotech, Fishers, Ind.

[3] = biological target: T3, Bovine trypsin (Bos taurus, UniProt P00760); assay: Serine protease selectivity, Kass, trypsin chromogenic assay; type: biochemical; conditions: apparent association constant
T3 construct: purchased Worthington Biochemicals, Freehold, N.J
T3 sequence (P00760 24-246): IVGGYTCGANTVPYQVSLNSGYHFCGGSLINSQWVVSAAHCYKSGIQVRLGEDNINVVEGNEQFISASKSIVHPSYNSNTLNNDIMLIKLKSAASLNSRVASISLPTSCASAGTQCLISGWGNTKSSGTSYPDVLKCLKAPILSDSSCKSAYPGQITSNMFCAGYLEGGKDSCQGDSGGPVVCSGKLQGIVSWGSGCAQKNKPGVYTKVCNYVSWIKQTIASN
Procedure: as §1, §2

[4] = biological target: T4, Human plasmin (Homo sapiens, UniProt P00747); assay: Fibrinolytic protease selectivity, Kass, plasmin chromogenic assay; type: biochemical; conditions: apparent association constant
T4 construct: Human plasmin is purchased from Boehringer Mannheim; purchased Boehringer Mannheim, Indianapolis, Indiana
Procedure: as §1
(§3) Human plasmin is purchased from Boehringer Mannheim, Indianapolis, Indiana; nt-PA is purchased as single chain activity reference from American Diagnostica, Greenwich, Conn.; modified-t-PA6 (mt-PA6) is prepared at Eli Lilly and Company by procedure known in the art (See, Burck, et al., J. Biol. Chem., 265, […] (1990). Plasmin chromogenic substrate H--D--Val--Leu--Lys--p--nitroanilide and tissue plasminogen activator (t-PA) substrate H--D--Ile--Pro--Arg--p--nitroanilide are purchased from Kabi Vitrum, Stockholm, Sweden.

[5] = biological target: T5, tissue plasminogen activator (t-PA) (Homo sapiens, UniProt P00750); assay: Fibrinolytic protease selectivity, Kass, t-PA chromogenic assay; type: biochemical; conditions: apparent association constant
T5 construct: purchased American Diagnostica, Greenwich, Conn
Procedure: as §1, §3

[6] = test system: human plasma; assay: Human plasma anticoagulation, thrombin time (TT); conditions: concentration required to double the thrombin time, linear extrapolation
Procedure: (§4) Dog plasma and rat plasma is obtained from conscious mixed-breed hounds (either sex, Hazelton-LRE, Kalamazoo, Mich., U.S.A.) or from anesthetized male Sprague-Dawley rats (Harlan Sprague-Dawley, Inc., Indianapolis, Ind., U.S.A.) by venipuncture into 3.8 percent citrate. Fibrinogen is prepared from in-date ACD human blood as the fraction I-2 according to previous procedures and specifications. Smith, Biochem. J., 185, 1-11 (1980); and Smith, et al., Biochemistry, 11, 2958-2967 (1972). Human fibrinogen is also purchased as 98 percent pure/plasmin free from American Diagnostica, Greenwich, Conn. Coagulation reagents ACTIN, Thromboplastin, and Human plasma are from Baxter Healthcare Corp., Dade Division, Miami, Fla. Bovine thrombin from Parke-Davis ([…], Mich.) is used for coagulation assays in plasma.
(§5) Coagulation assay procedures are as previously described. Smith, et al., Thrombosis Research, 50, 163-174 (1988). A CoAScreener coagulation instrument (American LABor, Inc.) is used for all coagulation assay measurements. The prothrombin time (PT) is measured by adding 0.05 mL saline and 0.05 mL Thromboplastin-C reagent to 0.05 mL test plasma. The activated partial thromboplastin time (APTT) is measured by incubation of 0.05 mL test plasma with 0.05 mL Actin reagent for 120 seconds followed by 0.05 mL CaCl2 (0.02 M). The thrombin time (TT) is measured by adding 0.05 mL saline and 0.05 mL thrombin (10 NIH units/mL) to 0.05 mL test plasma. The compounds of formula I are added to human or animal plasma over a wide range of concentrations to determine prolongation effects on the APTT, PT, and TT assays. Linear extrapolations are performed to estimate the concentrations required to double the clotting time for each assay.

[7] = test system: human plasma; assay: Human plasma anticoagulation, activated partial thromboplastin time (APTT); conditions: concentration required to double the APTT, linear extrapolation
Procedure: as §4, §5

[8] = test system: human plasma; assay: Human plasma anticoagulation, prothrombin time (PT); conditions: concentration required to double the PT, linear extrapolation
Procedure: as §4, §5

T5 sequence (P00750 36-562): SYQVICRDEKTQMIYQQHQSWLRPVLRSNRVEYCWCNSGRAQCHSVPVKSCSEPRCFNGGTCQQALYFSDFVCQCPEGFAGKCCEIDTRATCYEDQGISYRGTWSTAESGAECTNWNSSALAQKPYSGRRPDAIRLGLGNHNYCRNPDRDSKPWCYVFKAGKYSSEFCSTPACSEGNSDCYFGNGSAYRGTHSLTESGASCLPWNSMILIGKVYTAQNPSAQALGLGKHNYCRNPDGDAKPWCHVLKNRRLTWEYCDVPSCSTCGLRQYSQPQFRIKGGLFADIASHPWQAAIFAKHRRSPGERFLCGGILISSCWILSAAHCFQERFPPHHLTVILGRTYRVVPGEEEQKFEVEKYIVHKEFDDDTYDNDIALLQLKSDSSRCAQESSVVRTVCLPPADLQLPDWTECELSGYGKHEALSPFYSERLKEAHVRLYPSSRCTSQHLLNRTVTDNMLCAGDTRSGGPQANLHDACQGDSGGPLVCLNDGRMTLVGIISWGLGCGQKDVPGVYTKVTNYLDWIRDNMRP
T4 sequence (P00747 581-810 limits assumed): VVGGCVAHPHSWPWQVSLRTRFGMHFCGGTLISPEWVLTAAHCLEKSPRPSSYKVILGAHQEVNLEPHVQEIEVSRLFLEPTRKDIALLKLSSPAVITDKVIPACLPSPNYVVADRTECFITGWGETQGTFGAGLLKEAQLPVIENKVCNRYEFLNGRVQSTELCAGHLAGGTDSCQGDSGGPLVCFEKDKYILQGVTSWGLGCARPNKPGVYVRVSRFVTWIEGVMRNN
T4 sequence (P00747 97-580 partner limits assumed): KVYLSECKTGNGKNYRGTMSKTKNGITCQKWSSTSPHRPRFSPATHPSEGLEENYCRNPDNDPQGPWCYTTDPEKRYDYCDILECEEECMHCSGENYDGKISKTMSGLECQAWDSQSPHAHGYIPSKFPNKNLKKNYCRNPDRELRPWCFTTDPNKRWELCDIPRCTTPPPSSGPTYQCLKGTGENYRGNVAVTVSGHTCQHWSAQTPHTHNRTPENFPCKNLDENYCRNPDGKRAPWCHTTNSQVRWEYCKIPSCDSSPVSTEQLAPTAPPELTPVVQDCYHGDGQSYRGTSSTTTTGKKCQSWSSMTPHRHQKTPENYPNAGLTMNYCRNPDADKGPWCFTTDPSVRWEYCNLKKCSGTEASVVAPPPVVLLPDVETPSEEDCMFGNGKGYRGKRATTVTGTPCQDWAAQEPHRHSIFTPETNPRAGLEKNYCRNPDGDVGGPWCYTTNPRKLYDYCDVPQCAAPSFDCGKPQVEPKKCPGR
T2 sequence (P00742 235-488 limits assumed): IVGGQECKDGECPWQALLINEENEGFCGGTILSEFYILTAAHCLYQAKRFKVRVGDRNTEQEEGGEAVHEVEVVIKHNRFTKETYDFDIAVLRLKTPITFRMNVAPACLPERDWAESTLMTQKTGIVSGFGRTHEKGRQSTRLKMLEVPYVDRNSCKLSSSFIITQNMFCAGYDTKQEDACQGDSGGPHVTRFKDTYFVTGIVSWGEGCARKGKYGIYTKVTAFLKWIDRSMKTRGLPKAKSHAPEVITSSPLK
T2 sequence (P00742 41-179 partner limits assumed): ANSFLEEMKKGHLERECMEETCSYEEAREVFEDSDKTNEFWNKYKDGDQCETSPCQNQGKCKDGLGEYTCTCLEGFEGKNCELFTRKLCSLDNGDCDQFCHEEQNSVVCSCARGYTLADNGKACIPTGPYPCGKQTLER

Row | SMILES | Enzyme Kass Human Thrombin [1] | Enzyme Kass Xa [2] | Enzyme Kass Trypsin [3] | Enzyme Kass Plasmin [4] | Enzyme Kass t-PA [5] | Human Plasma Anticoagulation 2 × Clotting time TT [6] | Human Plasma Anticoagulation 2 × Clotting time APTT [7] | Human Plasma Anticoagulation 2 × Clotting time PT [8]
1 | Cl.Cl.NC(N)=NCCC[C@@H](C=O)NC(=O)CN(CCC1CCCCC1)C(=O)[C@H]1CCCCN1 [Example 10, D--hPro--N(cyclohexyl--CH2 CH2)Gly--ArgH.2HCl] | 5.4 L/mol × 10^6 | 0.22 L/mol × 10^6 | 5.8 L/mol × 10^6 | 0.33 L/mol × 10^6 | 0.007 L/mol × 10^6 | 230 ng/mL | 4,100 ng/mL | 6,900 ng/mL
2 | CCN(CC(=O)N[C@H](C=O)CCCNC(=N)N)C(=O)[C@H]1CCCCN1.Cl.Cl [Example 2, D-homoprolyl-N-ethylglycyl-L-argininal dihydrochloride] (H-[dPip]-[NEtG]-Arg-aldehyde) | 33 L/mol × 10^6 | 0.039 L/mol × 10^6 | 1.3 L/mol × 10^6 | 0.013 L/mol × 10^6 | 0.005 L/mol × 10^6 | 160 ng/mL | 2,600 ng/mL | 5,000 ng/mL
3 | Cc1ccccc1N(CC(=O)N[C@H](C=O)CCCN=C(N)N)C(=O)[C@H]1CCCCN1.Cl.Cl [Example 12, D--hPro--N(o--Me--Ph)Gly--ArgH.2HCl] | 3.3 L/mol × 10^6 | 0.14 L/mol × 10^6 | 0.55 L/mol × 10^6 | 0.060 L/mol × 10^6 | 0.0064 L/mol × 10^6 | 370 ng/mL | 4,900 ng/mL | 8,200 ng/mL
4 | Cl.Cl.N=C(N)NCCC[C@@H](C=O)NC(=O)CN(Cc1ccccc1)C(=O)[C@H]1CCCCN1 [Example 7, D--hPro--N(Bn)Gly--ArgH.2HCl] (H-[dPip]-[Nphe]-Arg-aldehyde) | 11 L/mol × 10^6 | 0.25 L/mol × 10^6 | 10 L/mol × 10^6 | 0.13 L/mol × 10^6 | 0.010 L/mol × 10^6 | 120 ng/mL | 3,700 ng/mL | 4,400 ng/mL
5 | Cl.Cl.N=C(N)NCCC[C@@H](C=O)NC(=O)CN(CCCC(=O)O)C(=O)[C@H]1CCCCN1 [Example 14, D--hPro--N(CH2 CH2 CH2 COOH)Gly--ArgH.2HCl] | 1.2 L/mol × 10^6 | 0.062 L/mol × 10^6 | 0.60 L/mol × 10^6 | 0.016 L/mol × 10^6 | 0.001 L/mol × 10^6 | 700 ng/mL | 20,000 ng/mL | 30,000 ng/mL
6 | Cl.Cl.N=C(N)NCCC[C@@H](C=O)NC(=O)CN(CCCc1ccccc1)C(=O)[C@H]1CCCCN1 [Example 9, D--hPro--N(PhCH2 CH2 CH2)Gly--ArgH.2HCl] | 24 L/mol × 10^6 | 0.31 L/mol × 10^6 | 6.0 L/mol × 10^6 | 0.12 L/mol × 10^6 | 0.006 L/mol × 10^6 | 55 ng/mL | 2,200 ng/mL | 3,000 ng/mL
7 | Cl.Cl.N=C(N)NCCC[C@@H](C=O)NC(=O)CN(CCCCC(=O)O)C(=O)[C@H]1CCCCN1 [Example 15, D--hPro--N(CH2 CH2 CH2 CH2 COOH)Gly--ArgH.2HCl] | 1.8 L/mol × 10^6 | 0.078 L/mol × 10^6 | 0.99 L/mol × 10^6 | 0.020 L/mol × 10^6 | 0.001 L/mol × 10^6 | 670 ng/mL | 15,000 ng/mL | 21,000 ng/mL
